Laboratory results as given in PubChem BioAssay AID330 (DTP/NCI, 2004).
“And” between values parts separate entries of the source, which are not always exact repeats. Equal values may be shown once. Inconclusive results and toxic doses are left out.

Tested on: P388 leukemia ip, CD2F1 mice, survival T/C
Test: NCI In Vivo Anticancer Drug Screen. Data for tumor model P388 Leukemia (intraperitoneal) in CD2F1 (CDF1) mice
Conditions: endpoint: median survival time, higher = longer survival
Method in brief: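 Mice carrying the transplanted tumor received test compound or vehicle. Survival was recorded in each group, and the value is the treated-group measurement divided by that of the vehicle-treated control group.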

[1] = dose: 50.0 mg/kg/injection, schedule: Q01DX005 (ip), vehicle: Klucel (hydroxypropylcellulose) (HPC)
[2] = dose: 100.0 mg/kg/injection, schedule: Q01DX005 (ip), vehicle: Klucel (hydroxypropylcellulose) (HPC)
[3] = dose: 200.0 mg/kg/injection, schedule: Q01DX005 (ip), vehicle: Klucel (hydroxypropylcellulose) (HPC)
[4] = dose: 50.0 mg/kg/injection, schedule: Q01DX009 (ip), vehicle: saline with Tween-80
[5] = dose: 12.5 mg/kg/injection, schedule: Q01DX005 (ip), vehicle: saline with Tween-80
[6] = dose: 25.0 mg/kg/injection, schedule: Q01DX005 (ip), vehicle: saline with Tween-80
[7] = dose: 50.0 mg/kg/injection, schedule: Q01DX005 (ip), vehicle: saline with Tween-80
[8] = dose: 60.0 mg/kg/injection, schedule: Q01DX005 (ip), vehicle: saline with Tween-80
[9] = dose: 60.0 mg/kg/injection, schedule: Q01DX005 (ip), vehicle: Klucel (hydroxypropylcellulose) (HPC)
[10] = dose: 100.0 mg/kg/injection, schedule: Q04DX003 (ip), vehicle: saline with Tween-80
[11] = dose: 200.0 mg/kg/injection, schedule: Q04DX003 (ip), vehicle: saline with Tween-80
[12] = dose: 100.0 mg/kg/injection, schedule: Q01DX009 (ip), vehicle: saline with Tween-80
[13] = dose: 120.0 mg/kg/injection, schedule: Q01DX005 (ip), vehicle: Klucel (hydroxypropylcellulose) (HPC)
[14] = dose: 240.0 mg/kg/injection, schedule: Q01DX005 (ip), vehicle: Klucel (hydroxypropylcellulose) (HPC)
[15] = dose: 50.0 mg/kg/injection, schedule: Q01DX009 (ip), vehicle: saline
[16] = dose: 100.0 mg/kg/injection, schedule: Q01DX009 (ip), vehicle: saline
[17] = dose: 200.0 mg/kg/injection, schedule: Q01DX009 (ip), vehicle: saline

Structure (SMILES): O=C1C=C2CCCCCCCC(C1)C2 (stereo not given)
- T/C [1]: 113 % of control
- T/C [2]: 108 % of control
- T/C [3]: 110 % of control

Structure (SMILES): COC1C=C(C)C(=O)O1 (stereo not given)
- T/C (dose: 50.0 mg/kg/injection, schedule: Q01DX005 (ip), vehicle: saline): 106 % of control
- T/C (dose: 100.0 mg/kg/injection, schedule: Q01DX005 (ip), vehicle: saline): 101 % of control
- T/C (dose: 200.0 mg/kg/injection, schedule: Q01DX005 (ip), vehicle: saline): 101 % of control

Structure (SMILES): Nc1nc(SCc2cccc(Br)c2)c2ncn(C3OC(CO)C(O)C3O)c2n1 (stereo not given)
- T/C [4]: 109 % of control
- T/C (dose: 66.0 mg/kg/injection, schedule: Q01DX009 (ip), vehicle: saline with Tween-80): 100 % of control
- T/C (dose: 200.0 mg/kg/injection, schedule: Q01DX009 (ip), vehicle: saline with Tween-80): 104 % of control

Structure (SMILES): COc1ccc(C(C)c2cc(N=NC(N)=O)c(OC)cc2O)cc1 (stereo not given)
- T/C [5]: 94 % of control
- T/C [6]: 90 % of control
- T/C [7]: 90 % of control

Structure (SMILES): COc1ccc(-c2cn3c([nH]c(=O)c4ccccc43)c2C#N)cc1
- T/C (dose: 15.0 mg/kg/injection, schedule: Q01DX005 (ip), vehicle: saline with Tween-80): 86 % of control
- T/C (dose: 30.0 mg/kg/injection, schedule: Q01DX005 (ip), vehicle: saline with Tween-80): 88 % of control
- T/C [8]: 86 % of control

Structure (SMILES): CCCCCCCCCCCC1=C(O)C(=O)C(Cl)=C(O)C1=O
- T/C [5]: 98 % of control
- T/C [6]: 97 % of control
- T/C [7]: 102 % of control and 90 % of control

Structure (SMILES): CC(C)CC(=O)C(c1ccccc1)C(CC(C)C)C(=O)C1C(c2ccccc2)CC(=O)C(C(C)C)C1c1ccccc1 (stereo not given)
- T/C [7]: 101 % of control
- T/C (dose: 100.0 mg/kg/injection, schedule: Q01DX005 (ip), vehicle: saline with Tween-80): 92 % of control
- T/C (dose: 200.0 mg/kg/injection, schedule: Q01DX005 (ip), vehicle: saline with Tween-80): 87 % of control

Structure (SMILES): CC(C)N(c1ccnc(F)n1)C(C)C
- T/C (dose: 30.0 mg/kg/injection, schedule: Q01DX005 (ip), vehicle: Klucel (hydroxypropylcellulose) (HPC)): 102 % of control
- T/C [9]: 104 % of control

Structure (SMILES): CCCCCC(Cn1ccnc1)c1ccc(Cl)cc1Cl (stereo not given)
- T/C [10]: 99 % of control
- T/C [11]: 94 % of control
- T/C (dose: 400.0 mg/kg/injection, schedule: Q04DX003 (ip), vehicle: saline with Tween-80): 89 % of control

Structure (SMILES): O=C(CCc1cc2[nH]c1c(-c1ccccc1)c1nc(c(-c3ccccc3)c3ccc([nH]3)c(-c3ccccc3)c3nc(c2-c2ccccc2)C=C3)C=C1)NCCCn1ccnc1
- T/C (dose: 50.0 mg/kg/injection, schedule: Q01DX001 (ip), vehicle: Klucel (hydroxypropylcellulose) (HPC)): 99 % of control
- T/C (dose: 100.0 mg/kg/injection, schedule: Q01DX001 (ip), vehicle: Klucel (hydroxypropylcellulose) (HPC)): 91 % of control
- T/C (dose: 200.0 mg/kg/injection, schedule: Q01DX001 (ip), vehicle: Klucel (hydroxypropylcellulose) (HPC)): 91 % of control
- T/C (dose: 400.0 mg/kg/injection, schedule: Q01DX001 (ip), vehicle: Klucel (hydroxypropylcellulose) (HPC)): 96 % of control

Structure (SMILES): C=CC(C)(C)C12CC3C(=O)Nc4ccccc4C(=O)N3C1Nc1ccccc12 (stereo not given)
- T/C (dose: 25.0 mg/kg/injection, schedule: Q01DX005 (ip), vehicle: distilled water + Tween-80 + alcohol): 95 % of control
- T/C (dose: 50.0 mg/kg/injection, schedule: Q01DX005 (ip), vehicle: distilled water + Tween-80 + alcohol): 97 % of control
- T/C (dose: 100.0 mg/kg/injection, schedule: Q01DX005 (ip), vehicle: distilled water + Tween-80 + alcohol): 103 % of control
- T/C (dose: 200.0 mg/kg/injection, schedule: Q01DX005 (ip), vehicle: distilled water + Tween-80 + alcohol): 98 % of control

Structure (SMILES): CS(=O)(=O)OCCN(CCOS(C)(=O)=O)c1ccc(C=Nc2ccc3oc(=O)ccc3c2)cc1
- T/C [4]: 104 % of control
- T/C [12]: 113 % of control
- T/C (dose: 132.0 mg/kg/injection, schedule: Q04DX003 (ip), vehicle: saline with Tween-80): 150 % of control
- T/C (dose: 300.0 mg/kg/injection, schedule: Q04DX003 (ip), vehicle: saline with Tween-80): 122 % of control

Structure (SMILES): Cc1cc(C)nc(/C=C(\NC(=O)c2ccccc2)c2ccccc2)c1
- T/C [8]: 108 % of control
- T/C (dose: 120.0 mg/kg/injection, schedule: Q01DX005 (ip), vehicle: saline with Tween-80): 102 % of control
- T/C (dose: 240.0 mg/kg/injection, schedule: Q01DX005 (ip), vehicle: saline with Tween-80): 101 % of control

Structure (SMILES): O=C(O)CNC(=O)CNc1nc(Cl)nc(NCC(=O)NCC(=O)O)n1
- T/C [9]: 97 % of control
- T/C [13]: 96 % of control
- T/C [14]: 93 % of control

Structure (SMILES): CO[C@@]1([C@@H](Cl)c2ccccc2)C(=O)N(C)/C(=C\c2ccccc2)C(=O)N1C
- T/C [9]: 105 % of control
- T/C [13]: 92 % of control
- T/C [14]: 97 % of control

Structure (SMILES): CC(=O)Nc1ccc(S(=O)(=O)OC(C)C)cc1
- T/C (dose: 100.0 mg/kg/injection, schedule: Q04DX003 (ip), vehicle: saline): 105 % of control
- T/C (dose: 200.0 mg/kg/injection, schedule: Q04DX003 (ip), vehicle: saline): 113 % of control
- T/C (dose: 400.0 mg/kg/injection, schedule: Q04DX003 (ip), vehicle: saline): 118 % of control

Structure (SMILES): CC(=O)NC(Cc1c[nH]c2ccccc12)C(=O)Oc1ccc([N+](=O)[O-])cc1 (stereo not given)
- T/C [15]: 95 % of control
- T/C [16]: 98 % of control
- T/C [17]: 92 % of control

Structure (SMILES): Cc1cc(=O)[nH]c2c1C(=O)c1c(C)cc(=O)n(C)c1C2=O
- T/C (dose: 0.5 mg/kg/injection, schedule: Q01DX009 (ip), vehicle: DMSO): 99 % of control and 97 % of control
- T/C (dose: 1.0 mg/kg/injection, schedule: Q01DX009 (ip), vehicle: DMSO): 90 % of control
- T/C (dose: 2.0 mg/kg/injection, schedule: Q01DX009 (ip), vehicle: DMSO): 91 % of control
- T/C (dose: 4.0 mg/kg/injection, schedule: Q01DX009 (ip), vehicle: DMSO): 108 % of control

Structure (SMILES): CC1CC2([Si](C)(C)C)C(=O)NC(=O)NC12 (stereo not given)
- T/C (dose: 25.0 mg/kg/injection, schedule: Q01DX005 (ip), vehicle: Klucel (hydroxypropylcellulose) (HPC)): 112 % of control
- T/C [1]: 103 % of control
- T/C [2]: 112 % of control
- T/C [3]: 99 % of control

Structure (SMILES): Nc1nc2[nH]ncc2c(=O)[nH]1
- T/C (dose: 25.0 mg/kg/injection, schedule: Q01DX009 (ip), vehicle: saline with Tween-80): 90 % of control
- T/C [4]: 100 % of control
- T/C (dose: 50.0 mg/kg/injection, schedule: Q04DX003 (ip), vehicle: saline with Tween-80): 104 % of control
- T/C [12]: 90 % of control
- T/C [10]: 109 % of control

Structure (SMILES): Cc1cc(C2C(=O)c3ccccc3C2=O)cc(C(C)(C)C)c1O
- T/C (dose: 100.0 mg/kg/injection, schedule: Q04DX002 (ip), vehicle: saline): 115 % of control
- T/C (dose: 200.0 mg/kg/injection, schedule: Q04DX002 (ip), vehicle: saline): 107 % of control
- T/C (dose: 400.0 mg/kg/injection, schedule: Q04DX002 (ip), vehicle: saline): 96 % of control

Structure (SMILES): CC12CCC3c4ccc(O)cc4CCC3C1CCC2(O)CN1CCCCC1 (stereo not given)
- T/C [1]: 96 % of control
- T/C [2]: 91 % of control

Structure (SMILES): [C-]#[O+].[Cl][Ru]([Cl])([Cl])([Cl])[Cl]
- T/C (dose: 12.5 mg/kg/injection, schedule: Q04DX003 (ip), vehicle: water): 108 % of control
- T/C (dose: 25.0 mg/kg/injection, schedule: Q04DX003 (ip), vehicle: water): 96 % of control
- T/C (dose: 50.0 mg/kg/injection, schedule: Q04DX003 (ip), vehicle: water): 105 % of control

Structure (SMILES): CCO/C=C1\SC(=S)N(c2ccccc2C)C1=O
- T/C (dose: 2.5 mg/kg/injection, schedule: Q03HX024 (ip), vehicle: saline with Tween-80): 105 % of control
- T/C (dose: 5.0 mg/kg/injection, schedule: Q03HX024 (ip), vehicle: saline with Tween-80): 107 % of control
- T/C (dose: 10.0 mg/kg/injection, schedule: Q03HX024 (ip), vehicle: saline with Tween-80): 117 % of control
- T/C (dose: 14.6 mg/kg/injection, schedule: Q01DX009 (ip), vehicle: saline with Tween-80): 105 % of control
- T/C (dose: 22.0 mg/kg/injection, schedule: Q01DX009 (ip), vehicle: saline with Tween-80): 105 % of control
- T/C [12]: 160 % of control
- T/C [10]: 116 % of control
- T/C [11]: 120 % of control

Structure (SMILES): Oc1c2ccccc2c(O)c2nc3ccccc3nc12
- T/C [15]: 100 % of control
- T/C [16]: 99 % of control
- T/C [17]: 100 % of control
